According to the NIST ThermoML archive (doi:10.1016/j.jct.2015.06.014):

Experiment: molar heat capacity at constant pressure
Conditions: Liquid, Large sample (1 g) DSC

FC(F)CC(F)(F)F [1,1,1,3,3-pentafluoropropane]
molar heat capacity at constant pressure [J/K/mol]
Conditions | 1590 kPa | 2520 kPa | 3480 kPa | 4530 kPa | 5500 kPa
315.15 K | 184.58 | 184.05 | 183.78 | 182.98 | 182.44
320.15 K | 185.79 | 185.12 | 184.72 | 183.91 | 183.24
325.15 K | 187.8 | 186.73 | 186.19 | 185.39 | 184.58
330.15 K | 191.02 | 189.95 | 189.01 | 188.07 | 187.13
335.15 K | 195.31 | 194.37 | 193.16 | 191.82 | 191.02
340.15 K | 200.13 | 199.2 | 197.85 | 196.25 | 195.44
345.15 K | 204.83 | 204.02 | 202.55 | 200.94 | 200.13
350.15 K | 209.52 | 208.44 | 207.1 | 205.5 | 204.56
355.15 K | 214.07 | 212.73 | 211.66 | 210.05 | 208.98
360.15 K | 219.3 | 217.69 | 216.76 | 214.74 | 213.67
365.15 K | 226.54 | 224.26 | 222.65 | 220.51 | 219.44
